Source: patent US12435092B2, “Substituted imidazo[1,2-A]quinazolines as inhibitors of PARG” (858 Therapeutics, Inc., priority 2022, dated 2025)

Target: T1, cellular PARG (Homo sapiens, UniProt Q86W56)
T1 construct: endogenous in cells; host or cells: HeLa
Experiment: Nuclear PAR accumulation assay (immunofluorescence high-content imaging)
Format: cell-based
Settings: HeLa cells, 1 hour compound treatment then MMS 50 μg/mL for an additional hour
Experimental: Compound IC50 values for inhibition of cellular PARG were determined using an immunofluorescence high-content imaging assay for nuclear PAR accumulation. HeLa cells were plated at 15,000 cells/well in a 96-well plate the day before compound treatment and then treated with varying concentrations of test compound and incubated for 1 hour at 37° C.+5% CO2. Following test compound treatment, methylmethane sulfonate (MMS) was added to a final concentration of 50 μg/mL and the cells were incubated for an additional hour. Following treatment, the cells were fixed with ice cold 95% methanol and the plates sealed and placed at −20° C. for 15 minutes. The cells were then washed once with phosphate buffered saline (PBS) and permeabilized with 0.1% Triton-X 100 for 20 minutes at room temperature. The cells were again washed once with PBS and incubated with an anti-poly-ADP ribose (PAR) monoclonal antibody (Millipore Part #AM80 clone 10H) diluted 1:1,000 in 5% fetal bovine serum +0.1% Tween-20+PBS overnight at 4° C. The cells were then washed three times with PBS before incubation with a fluorescently conjugated goat anti-mouse antibody (Invitrogen A32723) diluted 1:500 in 5% FBS+0.1% Tween-20+PBS for 1 hour at room temperature. The cells were again washed three times with PBS and the nuclei labeled by incubating with 1 μg/mL DAPI (4′,6-diamidino-2-phenylindole). Nuclear PAR accumulation was evaluated using high-content fluorescence microscopy. Four fields for each well were acquired at 20× magnification resulting in at least 1,000 cells analyzed per well. Using high-content software (CellReporterXpress) the nuclei were detected and segmented using the DAPI channel and the fluorescence intensity of the PAR-Alexa 488 channel was quantified within the nuclei regions. Both the average intensity per nucleus and percent PAR positive cells were quantified. Percent PAR positive cells were identified by having greater anti-PAR labeling above the threshold set with vehicle DMSO treated control cells. Percent inhibition of PARG by test compounds was calculated by normalizing the data to the 0.1% DMSO and reference compound control values, which represent 0% and 100% inhibition of enzymatic activity, respectively. Concentration-response-curves and IC50 values were generated using four parameter logistic curve fit software.

T1 sequence (Q86W56 whole entry): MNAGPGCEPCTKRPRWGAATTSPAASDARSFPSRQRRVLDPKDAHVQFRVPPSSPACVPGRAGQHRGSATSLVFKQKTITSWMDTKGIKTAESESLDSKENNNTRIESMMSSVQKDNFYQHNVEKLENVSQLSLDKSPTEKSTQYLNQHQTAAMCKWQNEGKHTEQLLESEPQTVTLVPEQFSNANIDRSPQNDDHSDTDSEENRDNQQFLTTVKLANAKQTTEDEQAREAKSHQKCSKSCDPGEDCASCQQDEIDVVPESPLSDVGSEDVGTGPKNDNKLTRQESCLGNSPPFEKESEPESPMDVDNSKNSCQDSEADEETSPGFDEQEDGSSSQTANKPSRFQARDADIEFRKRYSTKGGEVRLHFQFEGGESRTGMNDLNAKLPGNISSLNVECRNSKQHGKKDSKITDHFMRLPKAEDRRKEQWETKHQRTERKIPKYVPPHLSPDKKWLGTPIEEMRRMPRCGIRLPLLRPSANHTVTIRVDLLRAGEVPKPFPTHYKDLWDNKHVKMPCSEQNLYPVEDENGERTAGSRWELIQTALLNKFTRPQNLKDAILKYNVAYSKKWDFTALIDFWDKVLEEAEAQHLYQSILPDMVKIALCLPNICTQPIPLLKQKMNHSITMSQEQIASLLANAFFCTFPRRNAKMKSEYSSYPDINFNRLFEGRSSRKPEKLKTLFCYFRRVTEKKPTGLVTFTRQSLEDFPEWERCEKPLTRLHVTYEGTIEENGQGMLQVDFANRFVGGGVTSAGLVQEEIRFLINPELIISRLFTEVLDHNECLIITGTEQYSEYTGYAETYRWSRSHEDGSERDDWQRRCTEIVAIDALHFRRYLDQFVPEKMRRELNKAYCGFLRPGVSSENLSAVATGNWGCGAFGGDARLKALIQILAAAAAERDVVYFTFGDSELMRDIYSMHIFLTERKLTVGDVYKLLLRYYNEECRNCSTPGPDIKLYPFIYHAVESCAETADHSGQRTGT

IC50 | Compound
≤ 100 nM | C[C@@H]1CN=C2N(Cc3cn(C)nc3C(F)(F)F)C(=O)c3cc(S(=O)(=O)NC4(C)CC4)ccc3N21 [Example 55, (R)-1-methyl-4-((1-methyl-3-(trifluoromethyl)-1H-pyrazol-4-yl)methyl)-N-(1-methylcyclopropyl)-5-oxo-1,2,4,5-tetrahydroimidazo[1,2-a]quinazoline-7-sulfonamide]
100 to 1000 nM | COCC1(C)CN2C(=N1)N(Cc1cnn(C)c1)C(=O)c1cc(S(=O)(=O)NC3(C)CC3)ccc12 (stereo not drawn) [Example 127, 2-(methoxymethyl)-2-methyl-4-((1-methyl-1H-pyrazol-4-yl)methyl)-N-(1-methylcyclopropyl)-5-oxo-1,2,4,5-tetrahydroimidazo[1,2-a]quinazoline-7-sulfonamide]
≤ 100 nM | CC[C@@H]1CN=C2N(Cc3cnc(C)s3)C(=O)c3cc(S(=O)(=O)NC4(C)CC4)ccc3N21 [Example 30, (R)-1-ethyl-N-(1-methylcyclopropyl)-4-((2-methylthiazol-5-yl)methyl)-5-oxo-1,2,4,5-tetrahydroimidazo[1,2-a]quinazoline-7-sulfonamide]
≤ 100 nM | [2H]C([2H])(c1sc(C)nc1C)N1C(=O)c2cc(S(=O)(=O)NC3(C)CC3)ccc2N2C1=N[C@H]1COC[C@H]12 [Example 98, (7aR,10aS)-6-(dideutero(2,4-dimethylthiazol-5-yl)methyl)-N-(1-methylcyclopropyl)-5-oxo-5,6,7a,8,10,10a-hexahydrofuro[3′,4′:4,5]imidazo[1,2-a]quinazoline-3-sulfonamide]
≤ 100 nM | C[C@@H]1CN=C2N(Cc3cnn(C)c3)C(=O)c3cc(S(=O)(=O)NC4(C)CC4)cc(C4=CCN(C)CC4)c3N21 [Example 131, (R)-1-methyl-9-(1-methyl-1,2,3,6-tetrahydropyridin-4-yl)-4-((1-methyl-1H-pyrazol-4-yl)methyl)-N-(1-methylcyclopropyl)-5-oxo-1,2,4,5-tetrahydroimidazo[1,2-a]quinazoline-7-sulfonamide]
≤ 100 nM | [2H]C([2H])(c1cnn(C)c1)N1C(=O)c2cc(S(=O)(=O)NC3(C#N)CC3)ccc2N2C1=N[C@H]1CCC[C@H]12 [Example 88, (7aS,10aR)-N-(1-cyanocyclopropyl)-6-(dideutero(1-methyl-1H-pyrazol-4-yl)methyl)-5-oxo-6,7a,8,9,10,10a-hexahydro-5H-cyclopenta[4,5]imidazo[1,2-a]quinazoline-3-sulfonamide]
1000 to 10000 nM | C[C@@H]1CN=C2N(Cc3ccccc3)C(=O)c3cc(S(=O)(=O)NC4(C)CC4)ccc3N21 [Example 51, (R)-4-benzyl-1-methyl-N-(1-methylcyclopropyl)-5-oxo-1,2,4,5-tetrahydroimidazo[1,2-a]quinazoline-7-sulfonamide]
≤ 100 nM | C#C[C@H]1CN=C2N(Cc3c(C)noc3C)C(=O)c3cc(S(=O)(=O)NC4(C)CC4)ccc3N21 [Example 72, (S)-4-((3,5-dimethylisoxazol-4-yl)methyl)-1-ethynyl-N-(1-methylcyclopropyl)-5-oxo-1,2,4,5-tetrahydroimidazo[1,2-a]quinazoline-7-sulfonamide]
100 to 1000 nM | C#C[C@H]1CN=C2N(Cc3cnn(C)c3)C(=O)c3cc(S(=O)(=O)NC4(C)CC4)ccc3N21 [Example 33, (S)-1-ethynyl-4-((1-methyl-1H-pyrazol-4-yl)methyl)-N-(1-methylcyclopropyl)-5-oxo-1,2,4,5-tetrahydroimidazo[1,2-a]quinazoline-7-sulfonamide]
≤ 100 nM | Cc1noc(C)c1CN1C(=O)c2cc(S(=O)(=O)NC3(C)CC3)ccc2N2C1=NC[C@H]2C1CC1 [Example 69, (R)-1-cyclopropyl-4-((3,5-dimethylisoxazol-4-yl)methyl)-N-(1-methylcyclopropyl)-5-oxo-1,2,4,5-tetrahydroimidazo[1,2-a]quinazoline-7-sulfonamide]
1000 to 10000 nM | CC(C)[C@H]1CN=C2N(Cc3cnn(C)c3)C(=O)c3cc(S(=O)(=O)NC4(C)CC4)ccc3N21 [Example 39, (S)-1-isopropyl-4-((1-methyl-1H-pyrazol-4-yl)methyl)-N-(1-methylcyclopropyl)-5-oxo-1,2,4,5-tetrahydroimidazo[1,2-a]quinazoline-7-sulfonamide]
≤ 100 nM | C[C@@H]1CN=C2N(Cc3cnn(C(F)F)c3)C(=O)c3cc(S(=O)(=O)NC4(C)CC4)ccc3N21 [Example 57, (R)-4-((1-(difluoromethyl)-1H-pyrazol-4-yl)methyl)-1-methyl-N-(1-methylcydopropyl)-5-oxo-1,2,4,5-tetrahydroimidazo[1,2-a]quinazoline-7-sulfonamide]
≤ 100 nM | [2H]C([2H])(c1cnn(C)c1)N1C(=O)c2cc(S(=O)(=O)NC3(C)CC3)ccc2N2C1=NC[C@H]2C(F)(F)F [Example 87, (S)-4-(dideutero(1-methyl-1H-pyrazol-4-yl)methyl)-N-(1-methylcyclopropyl)-5-oxo-1-(trifluoromethyl)-1,2,4,5-tetrahydroimidazo[1,2-a]quinazoline-7-sulfonamide]
100 to 1000 nM | C#CC1CN=C2N(C)C(=O)c3cc(S(=O)(=O)NC4(C)CC4)ccc3N21 (stereo not drawn) [Example 43, 1-ethynyl-4-methyl-N-(1-methylcyclopropyl)-5-oxo-1,2,4,5-tetrahydroimidazo[1,2-a]quinazoline-7-sulfonamide]
≤ 100 nM | Cn1cc(CN2C(=O)c3cc(S(=O)(=O)NC4(C)CC4)ccc3N3C2=NC[C@H]3C#CC2CC2)cn1 [Example 83, (R)-1-(cyclopropylethynyl)-4-((1-methyl-1H-pyrazol-4-yl)methyl)-N-(1-methylcyclopropyl)-5-oxo-1,2,4,5-tetrahydroimidazo[1,2-a]quinazoline-7-sulfonamide]
≤ 100 nM | CC(C)[C@@H]1CN=C2N(Cc3cnn(C)c3)C(=O)c3cc(S(=O)(=O)NC4(C)CC4)ccc3N21 [Example 40, (R)-1-isopropyl-4-((1-methyl-1H-pyrazol-4-yl)methyl)-N-(1-methylcyclopropyl)-5-oxo-1,2,4,5-tetrahydroimidazo[1,2-a]quinazoline-7-sulfonamide]
100 to 1000 nM | C[C@@H]1CN=C2N(Cc3cn[nH]c3)C(=O)c3cc(S(=O)(=O)NC4(C)CC4)ccc3N21 [Example 6, (R)-4-((1H-pyrazol-4-yl)methyl)-1-methyl-N-(1-methylcyclopropyl)-5-oxo-1,2,4,5-tetrahydroimidazo[1,2-a]quinazoline-7-sulfonamide]
1000 to 10000 nM | CC[C@H]1CN=C2N(Cc3c(C)noc3C)C(=O)c3cc(S(=O)(=O)NC4(C)CC4)ccc3N21 [Example 13, (S)-4-((3,5-dimethylisoxazol-4-yl)methyl)-1-ethyl-N-(1-methylcyclopropyl)-5-oxo-1,2,4,5-tetrahydroimidazo[1,2-a]quinazoline-7-sulfonamide]
≤ 100 nM | C[C@@H]1CN=C2N(Cc3cnn4c3CCC4)C(=O)c3cc(S(=O)(=O)NC4(C)CC4)ccc3N21 [Example 118, (R)-4-((5,6-dihydro-4H-pyrrolo[1,2-b]pyrazol-3-yl)methyl)-1-methyl-N-(1-methylcyclopropyl)-5-oxo-1,2,4,5-tetrahydroimidazo[1,2-a]quinazoline-7-sulfonamide]
100 to 1000 nM | Cn1cc(CN2C(=O)c3cc(S(=O)(=O)NC4(C)CC4)ccc3N3C2=NCC32COC2)cn1 [Example 105, 4-((1-methyl-1H-pyrazol-4-yl)methyl)-N-(1-methylcyclopropyl)-5-oxo-4,5-dihydro-2H-spiro[imidazo[1,2-a]quinazoline-1,3′-oxetane]-7-sulfonamide]
100 to 1000 nM | CCC1CN=C2N(C)C(=O)c3cc(S(=O)(=O)NC4(C)CC4)ccc3N21 (stereo not drawn) [Example 50, 1-ethyl-4-methyl-N-(1-methylcyclopropyl)-5-oxo-1,2,4,5-tetrahydroimidazo[1,2-a]quinazoline-7-sulfonamide]
≤ 100 nM | Cc1c(CN2C(=O)c3cc(S(=O)(=O)NC4(C)CC4)ccc3N3C2=NC[C@H]3C)cnn1C [Example 81, (R)-4-((1,5-dimethyl-1H-pyrazol-4-yl)methyl)-1-methyl-N-(1-methylcyclopropyl)-5-oxo-1,2,4,5-tetrahydroimidazo[1,2-a]quinazoline-7-sulfonamide]
100 to 1000 nM | CC#C[C@H]1CN=C2N(Cc3cnn(C)c3)C(=O)c3cc(S(=O)(=O)NC4(C)CC4)ccc3N21 [Example 60, (S)-4-((1-methyl-1H-pyrazol-4-yl)methyl)-N-(1-methylcyclopropyl)-5-oxo-1-(prop-1-yn-1-yl)-1,2,4,5-tetrahydroimidazo[1,2-a]quinazoline-7-sulfonamide]
≤ 100 nM | C[C@H]1CCN=C2N(Cc3cnn(C)c3)C(=O)c3cc(S(=O)(=O)NC4(C)CC4)ccc3N21 [Example 75, (S)-1-methyl-5-((1-methyl-1H-pyrazol-4-yl)methyl)-N-(1-methylcyclopropyl)-6-oxo-2,3,5,6-tetrahydro-1H-pyrimido[1,2-a]quinazoline-8-sulfonamide]
